# Molecular target: P2X3 receptor
# Experiment: Antagonist activity against rat or human P2X3 receptor expressed in HEK293/1321N1 cells assessed as inhibition of alpha,beta-meATP/ATP-induced calcium influx by Fluo-4 dye based FLIPR assay
# Assay type: functional, cell-based
row,SMILES,IC50
1,COc1ccc(CNc2ncnc3c2CN(c2ccc(Cl)cc2C#N)CC3)cn1,59 nM
2,Cc1ccc(N2CCc3ncnc(NCc4ccc(C5CC5)cn4)c3C2)c(C#N)c1,236 nM
3,Cc1ccc(N2CCc3ncnc(NCc4ccn5ccnc5c4)c3C2)c(C#N)c1,18 nM
4,COc1ccc([C@H](CC(=O)OC(C)(C)C)Nc2ncnc3c2CN(c2ccc(Cl)cc2C#N)CC3)cn1,> 10000 nM
5,N#Cc1cc(Cl)ccc1N1CCc2ncnc(N[C@H](CCO)c3ccc(C(F)F)nc3)c2C1,32 nM
6,Cc1ccc(N2CCc3ncnc(NCc4ccc(C)c(I)c4)c3C2)c(C#N)c1,512 nM
7,Cc1ccc(N2CCc3ncnc(NCc4ccc5nccnc5c4)c3C2)c(C#N)c1,34 nM
8,Cc1nc(C(F)(F)F)ccc1CNc1ncnc2c1CN(c1ccc(Cl)cc1C#N)CC2,187 nM
9,CC(=O)OCC[C@@H](Nc1ncnc2c1CN(c1ccc(C)cc1C#N)CC2)c1ccc(C(F)(F)F)nc1,130 nM
10,N#Cc1cc(Cl)ccc1N1CCc2ncnc(NCc3ccn4ccnc4c3)c2C1,122 nM
11,Cc1ccc(N2CCc3ncnc(NCc4ccc(C)c(F)c4)c3C2)c(C#N)c1,89 nM
12,Cc1ccc(N2CCc3ncnc(NCc4ccc(C)c(S(C)(=O)=O)c4)c3C2)c(C#N)c1,16 nM
13,CSc1cc(CNc2ncnc3c2CN(c2ccc(C)cc2C#N)CC3)ccc1C,474 nM
14,COc1ccc([C@@H](CC(=O)O)Nc2ncnc3c2CN(c2ccc(Cl)cc2C#N)CC3)cn1,1380 nM
15,COc1ccc(CNc2ncnc3c2CN(c2ccc(Br)cc2C#N)CC3)cn1,78 nM
16,Cc1ccc(N2CCc3ncnc(NCc4ccc(Cl)nc4)c3C2)c(C#N)c1,11 nM
17,CCc1ccc(CNc2ncnc3c2CN(c2ccc(C)cc2C#N)CC3)cn1,38 nM
18,N#Cc1cc(Cl)ccc1N1CCc2ncnc(NCc3ccc4nccnc4c3)c2C1,125 nM
19,Cc1ccc(N2CCc3ncnc(NCc4cccc(C#N)c4)c3C2)c(C#N)c1,183 nM
20,N#Cc1cc(Cl)ccc1N1CCc2ncnc(N[C@H](CCO)c3ccc(C(F)(F)F)nc3)c2C1,90 nM
21,Cc1ccc(N2CCc3ncnc(NC(CCO)c4ccc(C(F)(F)F)nc4)c3C2)c(C#N)c1 (configuration not stated),55 nM
22,N#Cc1cc(Cl)ccc1N1CCc2ncnc(NCc3ccc(Cl)c(-n4cnnc4)c3)c2C1,41 nM
23,N#Cc1cc(Cl)ccc1N1CCc2ncnc(NCc3ncc(C(F)(F)F)cc3Cl)c2C1,91 nM
24,Cc1ccc(N2CCc3ncnc(N[C@H](CCO)c4ccc(C(F)(F)F)nc4)c3C2)c(C#N)c1,23 nM
25,COc1ccc([C@@H](CO)Nc2ncnc3c2CN(c2ccc(Cl)cc2C#N)CC3)cn1,23 nM
26,N#Cc1cc(F)ccc1N1CCc2ncnc(NCc3ccc(C(F)(F)F)nc3)c2C1,85 nM
27,N#Cc1cc(Cl)ccc1N1CCc2ncnc(N[C@H](CO)c3ccc(C(F)(F)F)nc3)c2C1,54 nM
28,N#Cc1cc(C(F)(F)F)ccc1N1CCc2ncnc(NCc3ccc(C(F)(F)F)nc3)c2C1,1840 nM

# Further compounds by falling IC50, results first:
row,IC50,SMILES
1,870 nM,N#Cc1cc(C2CC2)ccc1N1CCc2ncnc(NCc3ccc(C(F)(F)F)nc3)c2C1
2,806 nM,Cc1ccc(N2CCc3ncnc(N[C@@H](CCO)c4ccc(C(F)(F)F)nc4)c3C2)c(C#N)c1
3,628 nM,CN(C)c1ccc(CNc2ncnc3c2CN(c2ccc(Cl)cc2C#N)CC3)cn1
4,423 nM,Cc1ccc(N2CCc3ncnc(NCc4ccc5cc[nH]c5c4)c3C2)c(C#N)c1
5,284 nM,N#Cc1cc(Cl)ccc1N1CCc2ncnc(NCc3cccc(-n4cnnc4)c3)c2C1
6,196 nM,Cc1ccc(N2CCc3ncnc(NCc4ccccn4)c3C2)c(C#N)c1
7,156 nM,Cc1ccc(N2CCc3ncnc(NCc4ccc5ccccc5n4)c3C2)c(C#N)c1
8,118 nM,N#Cc1cc(Cl)ccc1N1CCc2ncnc(NCc3ccc(C(F)(F)F)cn3)c2C1
9,96 nM,Cc1ccc(N2CCc3ncnc(NCc4ccc(C)c(N5CCOCC5)c4)c3C2)c(C#N)c1
10,80 nM,N#Cc1cc(Br)ccc1N1CCc2ncnc(NCc3ccc(C(F)(F)F)nc3)c2C1
11,65 nM,Cc1ccc(N2CCc3ncnc(NCc4cccc(-n5cnnc5)c4)c3C2)c(C#N)c1
12,63 nM,Cc1ccc(N2CCc3ncnc(NCc4ccc(C)c(C#N)c4)c3C2)c(C#N)c1
13,63 nM,N#Cc1ccccc1N1CCc2ncnc(NCc3ccc(C(F)(F)F)nc3)c2C1
14,56 nM,Cc1ccc(N2CCc3ncnc(NCc4ccc5c(c4)OCO5)c3C2)c(C#N)c1
15,41 nM,Cc1ccc(N2CCc3ncnc(NCc4ncc(Cl)cc4Cl)c3C2)c(C#N)c1
16,40 nM,Cc1ccc(CNc2ncnc3c2CN(c2ccc(Cl)cc2C#N)CC3)cc1S(C)(=O)=O
17,37 nM,Cc1ccc(N2CCc3ncnc(NCc4ccc(Cl)c(S(C)(=O)=O)c4)c3C2)c(C#N)c1
18,37 nM,N#Cc1cc(Cl)ccc1N1CCc2ncnc(NCc3ccc(C(F)(F)F)nc3)c2C1
19,33 nM,COc1ccc([C@@H](CCO)Nc2ncnc3c2CN(c2ccc(Cl)cc2C#N)CC3)cn1
20,31 nM,Cc1ccc(N2CCc3ncnc(NCc4ccc(Cl)c(-n5cnnc5)c4)c3C2)c(C#N)c1
21,29 nM,Cc1ccc(N2CCc3ncnc(NCc4ccc(Cl)cn4)c3C2)c(C#N)c1
22,21 nM,Cc1ccc(N2CCc3ncnc(NCc4ccc(C)c(-n5cncn5)c4)c3C2)c(C#N)c1
23,21 nM,Cc1ccc(N2CCc3ncnc(N[C@H](CO)c4ccc(C(F)(F)F)nc4)c3C2)c(C#N)c1
24,20 nM,Cc1ccc(N2CCc3ncnc(NCc4ccc5cccnc5c4)c3C2)c(C#N)c1
25,19 nM,Cc1ccc(N2CCc3ncnc(NCc4ccc(C(F)(F)F)nc4)c3C2)c(C#N)c1
26,16 nM,N#Cc1cc(Cl)ccc1N1CCc2ncnc(N[C@H](CO)c3ccc(C(F)F)nc3)c2C1
27,15 nM,Cc1ccc(N2CCc3ncnc(NCc4ccc5ocnc5c4)c3C2)c(C#N)c1
28,13 nM,Cc1ccc(N2CCc3ncnc(N[C@H](CCO)c4ccc(C(F)F)nc4)c3C2)c(C#N)c1

# Molecular target: T1, P2X2/P2X3 heterotrimeric receptor (Homo sapiens, UniProt P56373+Q9UBL9)
# T1 sequence (Q9UBL9 whole entry): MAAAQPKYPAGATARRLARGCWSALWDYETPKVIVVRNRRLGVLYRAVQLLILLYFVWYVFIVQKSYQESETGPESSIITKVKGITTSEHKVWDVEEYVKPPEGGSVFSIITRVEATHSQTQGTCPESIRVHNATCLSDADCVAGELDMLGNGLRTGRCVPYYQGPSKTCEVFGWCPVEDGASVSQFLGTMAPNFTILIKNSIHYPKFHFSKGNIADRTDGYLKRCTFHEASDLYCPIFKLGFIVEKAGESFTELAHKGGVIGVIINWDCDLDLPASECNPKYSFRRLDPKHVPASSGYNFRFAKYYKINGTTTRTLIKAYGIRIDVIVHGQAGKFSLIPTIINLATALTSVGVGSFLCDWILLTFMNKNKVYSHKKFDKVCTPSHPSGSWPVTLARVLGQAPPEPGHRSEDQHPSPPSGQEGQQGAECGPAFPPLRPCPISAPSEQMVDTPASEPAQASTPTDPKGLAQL
# T1 sequence (P56373 whole entry): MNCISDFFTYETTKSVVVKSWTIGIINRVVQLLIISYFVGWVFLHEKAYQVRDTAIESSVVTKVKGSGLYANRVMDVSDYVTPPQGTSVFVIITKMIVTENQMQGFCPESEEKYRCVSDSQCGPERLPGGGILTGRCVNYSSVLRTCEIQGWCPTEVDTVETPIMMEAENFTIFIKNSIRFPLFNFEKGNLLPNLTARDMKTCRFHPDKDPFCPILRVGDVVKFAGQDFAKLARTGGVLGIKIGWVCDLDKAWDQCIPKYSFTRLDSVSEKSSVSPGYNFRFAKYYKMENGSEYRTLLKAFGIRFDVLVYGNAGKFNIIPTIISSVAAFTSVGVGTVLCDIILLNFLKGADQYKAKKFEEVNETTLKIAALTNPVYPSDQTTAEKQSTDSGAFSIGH
# Experiment: Antagonist activity against human P2X2/3 receptor expressed in HEK293/1321N1 cells assessed as inhibition of alpha,beta-meATP/ATP-induced calcium influx by Fluo-4 dye based FLIPR assay
# Assay type: functional, cell-based
row,IC50,SMILES
1,> 10000 nM,COc1ccc([C@H](CC(=O)OC(C)(C)C)Nc2ncnc3c2CN(c2ccc(Cl)cc2C#N)CC3)cn1
